Assay results: US10040804B2, “Compounds targeting proteins, compositions, methods, and uses thereof” (BioTheryX, Inc., priority 2016, dated 2018)

What was measured:
IL-2 = assay: anti-CD3-induced IL-2 secretion in PBMCs; type: cell-based; conditions: Homo sapiens, PBMC, anti-CD3 stimulated PBMCs, 24 h, DMSO = 1.0, read-out: Fold Change IL-2; for fold induction at 10 µM: compound concentration 10 μM
Procedure: FIGS. 4 and 9D are graphs showing anti-CD3-induced IL-2 secretion in PBMCs. 1 ug/mL anti-CD3 (OKT-3) antibody in PBS were coated onto 96-well plates overnight at 4° C. Approximately 550,000 PBMCs were added to each well, followed by addition of DMSO only, Compound 1-8 at 10 μM (FIG. 4) or Compound 9 at 0.1 μM or 1 μM (FIG. 9D), or 10 μM lenalidomide (rev). Induction was measured after 24 h as fold difference from the DMSO stimulated control.
For the IL-2 analysis, 96 well plates were precoated with 1 ug/mL anti-human CD3 antibody (OKT3, eBioscience Inc.). After washing with PBS, compounds were added to the wells (50 μL/well) followed by PBMCs diluted at 3-4 million cells/mL (150 μL/well). Plates were incubated for 24 h and the supernatants collected for Mesoscale IL-2 analysis.
Compound activity was measured as fold difference from the DMSO control. IL-1-beta activity is shown in FIG. 1; IL-6 activity is shown in FIG. 2; TNF-α activity is shown in FIG. 3; and IL-2 activity is shown in FIG. 4.

IL-6 = IL-6 expression in LPS stimulated PBMCs (Meso Scale); type: cell-based, human; conditions: Homo sapiens, PBMC, LPS-stimulated PBMCs; for inhibition at 10 µM: compound concentration 10 μM
Procedure, shortened: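 Thawed human PBMCs at 200,000 cells/well in RPMI-1640/10% FBS were pretreated with compound or DMSO for 1 h, then stimulated with 100 ng/mL LPS for 18–24 h. Supernatant IL-6 was measured by Meso Scale assay and expressed as % of LPS-induced activity.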

IL-1β = IL-1β expression in LPS stimulated PBMCs (Meso Scale); type: cell-based, human; conditions: Homo sapiens, PBMC; for inhibition at 10 µM: compound concentration 10 μM
Procedure, shortened: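 Human PBMCs (200,000 cells/well in RPMI-1640/10% FBS) were pretreated with compound for 1 h, then stimulated with 100 ng/mL LPS for 18-24 h. IL-1β in supernatant was measured by Meso Scale assay. Activity is expressed as percentage of LPS-induced level, with DMSO-treated wells as negative control.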

TNF-α = TNF-α expression in LPS stimulated PBMCs (Meso Scale); type: cell-based, human; conditions: Homo sapiens, PBMC; for inhibition at 10 µM: compound concentration 10 μM
Procedure, shortened: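 Thawed primary human PBMCs, 200,000 cells/well in RPMI-1640/10% FBS, pretreated with compound 1 h, then stimulated with 100 ng/mL LPS for 18-24 h. Supernatant TNF-α measured by Meso Scale assay; activity expressed as percentage of LPS-induced level, DMSO as negative control.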

Molm-13 cells = assay: Molm-13 cell viability (CellTiter-Glo); type: cell-based; conditions: Homo sapiens, MOLM-13, read-out: % Inhibition (MOLM-13 Cell Viability); for cytotoxicity at 10 µM: compound concentration 10 μM; for cytotoxicity at 2.8 µM: compound concentration 2.8 μM
Procedure, shortened: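 Molm-13 (RPMI-1640, 10% FBS) and H1048 (DMEM:F12, 5% FBS with supplements) plated at 20,000 cells/well, treated with compound or 0.1% DMSO for 3 days at 37° C., 5% CO2. Viability read by CellTiter-Glo luminescence after 10 min.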

Compound | fold induction at 10 µM (IL-2) | inhibition at 10 µM (IL-6) [%] | inhibition at 10 µM (IL-1β) [%] | inhibition at 10 µM (TNF-α) [%] | cytotoxicity at 10 µM (Molm-13 cells) [%] | cytotoxicity at 6 µM (Molm-13 cells; compound concentration 6 μM) [%] | cytotoxicity at 2.8 µM (Molm-13 cells) [%] | fold induction at 1 µM (IL-2; compound concentration 1 μM) | inhibition at 1 µM (IL-6; compound concentration 1 μM) [%] | inhibition at 1 µM (IL-1β; compound concentration 1 μM) [%] | inhibition at 1 µM (TNF-α; compound concentration 1 μM) [%] | cytotoxicity at 0.2 µM (Molm-13 cells; compound concentration 0.2 μM) [%]
Cc1scc2c1CN([C@H]1CC(=O)NC1=O)C2=O [Compound 20, (S)-3-(1-Methyl-4-oxo-4H-thieno[3,4-c]pyrrol-5(6H)-yl) pyrrolidine-2,5-dione] | 2.2 | 19 | 50 | 58 | 19 | – | – | – | – | – | – | –
O=C1CCC(N2Cc3sccc3C2=O)C(=O)N1 (centres unmarked) [Compound 21, 3-(4-Oxo-4H-thieno[2,3-c]pyrrol-5(6H)-yl)piperidine-2,6-dione] | 2.9 | 73 | 74 | 74 | 16 | – | – | – | – | – | – | –
O=C1CCC(N2C(=O)c3scc(C4CCCC4)c3C2=O)C(=O)N1 (centres unmarked) [Compound 22, 3-Cyclopentyl-5-(2,6-dioxopiperidin-3-yl)-4H-thieno[2,3-c]pyrrole-4,6(5H)-dione] | 0.8 | 16 | 0 | 26 | 23 | – | – | – | – | – | – | –
O=C1CCC(N2Cc3c(csc3C(F)F)C2=O)C(=O)N1 (centres unmarked) [Compound 23, 3-(1-(Difluoromethyl)-4-oxo-4H-thieno[3,4-c]pyrrol-5(6H)-yl)piperidine-2,6-dione] | 2 | 45 | 69 | 82 | 34 | – | – | – | – | – | – | –
O=C1CCC[C@H](N2Cc3c(C4CCCC4)csc3C2=O)C(=O)N1 [Compound 24, (S)-3-(3-Cyclopentyl-6-oxo-4H-thieno[2,3-c]pyrrol-5(6H)-yl)azepane-2,7-dione] | 0.7 | 6 | 11 | 23 | 26 | – | – | – | – | – | – | –
Cc1sc(Cl)c2c1CN([C@H]1CCCC(=O)NC1=O)C2=O [Compound 25, (S)-3-(3-Chloro-1-methyl-4-oxo-4H-thieno[3,4-c]pyrrol-5(6H)-yl)azepane-2,7-dione] | 1.3 | 22 | 45 | 41 | 20 | – | – | – | – | – | – | –
O=C1CCC(N2C(=O)c3cc(C4CCCC4)sc3C2=O)C(=O)N1 (centres unmarked) [Compound 26, 2-Cyclopentyl-5-(2,6-dioxopiperidin-3-yl)-4H-thieno[2,3-c]pyrrole-4,6(5H)-dione] | 0.9 | 14 | 2 | 31 | 0 | – | – | – | – | – | – | –
O=C1CCC(N2C(=O)c3csc(C4CCCC4)c3C2=O)C(=O)N1 (centres unmarked) [Compound 27, 1-Cyclopentyl-5-(2,6-dioxopiperidin-3-yl)-4H-thieno[3,4-c]pyrrole-4,6(5H)-dione] | 0.8 | 3 | 21 | 22 | 0 | – | – | – | – | – | – | –
Cc1scc2c1CN([C@H]1CCCCNC1=O)C2=O [Compound 28, (S)-1-Methyl-5-(2-oxoazepan-3-yl)-5,6-dihydro-4H-thieno[3,4-c]pyrrol-4-one] | 0.9 | 9 | 0 | 0 | 0 | – | – | – | – | – | – | –
Cc1cnc(Nc2ccc(OCCCNCC(=O)NCc3scc4c3CN([C@H]3CCCC(=O)NC3=O)C4=O)cc2)nc1Nc1cccc(S(=O)(=O)NC(C)(C)C)c1 [Compound 58, (S)-2-((3-(4-((4-((3-(N-(tert-Butyl)sulfamoyl)phenyl)amino)-5-methylpyrimidin-2-yl)amino)phenoxy)propyl)amino)-N-((5-(2,7-dioxoazepan-3-yl)-4-oxo-5,6-dihydro-4H-thieno[3,4-c]pyrrol-1-yl)methyl)acetamide] | 1.9 | 53 | 82 | 92 | – | 50 | – | – | – | – | – | –
Cc1cnc(Nc2ccc(OCCCNCC(=O)NCc3scc4c3CN(C3CCC(=O)NC3=O)C4=O)cc2)nc1Nc1cccc(S(=O)(=O)NC(C)(C)C)c1 (centres unmarked) [Compound 59, 2-((3-(4-((4-((3-(N-(tert-Butyl)sulfamoyl)phenyl)amino)-5-methylpyrimidin-2-yl)amino)phenoxy)propyl)amino)-N-((5-(2,6-dioxopiperidin-3-yl)-4-oxo-5,6-dihydro-4H-thieno[3,4-c]pyrrol-1-yl)methyl)acetamide] | 1.8 | 10 | 45 | 81 | – | – | 50 | – | – | – | – | –
Cc1sc2c(c1C)C(c1ccc(Cl)cc1)=N[C@@H](CC(=O)NCCCCNCC(=O)NCc1scc3c1CN(C1CCC(=O)NC1=O)C3=O)c1nnc(C)n1-2 (stereo partly drawn) [Compound 60, 2-((S)-4-(4-Chlorophenyl)-2,3,9-trimethyl-6H-thieno[3,2-f][1,2,4]triazolo[4,3-a][1,4]diazepin-6-yl)-N-(4-((2-(((5-(2,6-dioxopiperidin-3-yl)-4-oxo-5,6-dihydro-4H-thieno[3,4-c]pyrrol-1-yl)methyl)amino)-2-oxoethyl)amino)butyl)acetamide] | – | – | – | – | – | – | – | 0.2 | 95 | 91 | 93 | 50
Cc1cnc(Nc2ccc(OCCCNC(=O)NCc3scc4c3CN([C@H]3CCCC(=O)NC3=O)C4=O)cc2)nc1Nc1cccc(S(=O)(=O)NC(C)(C)C)c1 [Compound 61, (S)—N-(tert-Butyl)-3-((2-((4-(3-(3-((5-(2,7-dioxoazepan-3-yl)-4-oxo-5,6-dihydro-4H-thieno[3,4-c]pyrrol-1-yl)methyl)ureido)propoxy)phenyl)amino)-5-methylpyrimidin-4-yl)amino)benzenesulfonamide] | 0.8 | 11 | 53 | 66 | – | – | 50 | – | – | – | – | –
